Measured values taken from article PMC6882135 (ACS Omega, 2019).

Key:
[1] = target: T1, human HDAC11 (Homo sapiens, UniProt Q96DB2); assay: Discontinuous fluorescence-based; type: biochemical
T1 sequence (Q96DB2 1-347): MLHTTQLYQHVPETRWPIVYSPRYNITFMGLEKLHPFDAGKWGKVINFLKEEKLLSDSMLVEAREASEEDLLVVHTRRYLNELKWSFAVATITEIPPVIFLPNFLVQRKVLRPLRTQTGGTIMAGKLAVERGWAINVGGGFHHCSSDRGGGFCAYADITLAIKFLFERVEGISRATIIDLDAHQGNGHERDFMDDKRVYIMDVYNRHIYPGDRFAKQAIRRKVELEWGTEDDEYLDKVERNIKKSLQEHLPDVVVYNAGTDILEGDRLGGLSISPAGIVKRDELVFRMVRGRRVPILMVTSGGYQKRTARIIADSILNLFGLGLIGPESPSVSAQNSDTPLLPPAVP

[2] = target: T1, human HDAC11; assay: Continuous fluorescence HDAC11 activity assay with peptidic substrate 1; type: biochemical

Row | Compound | IC50 [1] | IC50 [2]
1 | Nc1ccccc1NC(=O)c1ccc(CNc2nccc(-c3cccnc3)n2)cc1 [mocetinostat, N-(2-aminophenyl)-4-(4-pyridin-3-ylpyrimidin-2-ylamino)methylbenzamide] | > 40 µM | > 40 µM
2 | CCCC(CCC)C(=O)O [valproate] | > 40 µM | > 40 µM
3 | C/C=C1\NC(=O)[C@H]2CSSCC/C=C/[C@H](CC(=O)N[C@H](C(C)C)C(=O)N2)OC(=O)[C@H](C(C)C)NC1=O [romidepsin] | 4.81 ± 0.04 µM | 
